What all share (format): cell-based
For one assay, the target named is T1, human TLR7 (Homo sapiens, UniProt Q9NYK1).
T1 construct: host or cells: HEK-Blue cells (HEK293-derived reporter line)
T1 sequence (Q9NYK1 27-1049): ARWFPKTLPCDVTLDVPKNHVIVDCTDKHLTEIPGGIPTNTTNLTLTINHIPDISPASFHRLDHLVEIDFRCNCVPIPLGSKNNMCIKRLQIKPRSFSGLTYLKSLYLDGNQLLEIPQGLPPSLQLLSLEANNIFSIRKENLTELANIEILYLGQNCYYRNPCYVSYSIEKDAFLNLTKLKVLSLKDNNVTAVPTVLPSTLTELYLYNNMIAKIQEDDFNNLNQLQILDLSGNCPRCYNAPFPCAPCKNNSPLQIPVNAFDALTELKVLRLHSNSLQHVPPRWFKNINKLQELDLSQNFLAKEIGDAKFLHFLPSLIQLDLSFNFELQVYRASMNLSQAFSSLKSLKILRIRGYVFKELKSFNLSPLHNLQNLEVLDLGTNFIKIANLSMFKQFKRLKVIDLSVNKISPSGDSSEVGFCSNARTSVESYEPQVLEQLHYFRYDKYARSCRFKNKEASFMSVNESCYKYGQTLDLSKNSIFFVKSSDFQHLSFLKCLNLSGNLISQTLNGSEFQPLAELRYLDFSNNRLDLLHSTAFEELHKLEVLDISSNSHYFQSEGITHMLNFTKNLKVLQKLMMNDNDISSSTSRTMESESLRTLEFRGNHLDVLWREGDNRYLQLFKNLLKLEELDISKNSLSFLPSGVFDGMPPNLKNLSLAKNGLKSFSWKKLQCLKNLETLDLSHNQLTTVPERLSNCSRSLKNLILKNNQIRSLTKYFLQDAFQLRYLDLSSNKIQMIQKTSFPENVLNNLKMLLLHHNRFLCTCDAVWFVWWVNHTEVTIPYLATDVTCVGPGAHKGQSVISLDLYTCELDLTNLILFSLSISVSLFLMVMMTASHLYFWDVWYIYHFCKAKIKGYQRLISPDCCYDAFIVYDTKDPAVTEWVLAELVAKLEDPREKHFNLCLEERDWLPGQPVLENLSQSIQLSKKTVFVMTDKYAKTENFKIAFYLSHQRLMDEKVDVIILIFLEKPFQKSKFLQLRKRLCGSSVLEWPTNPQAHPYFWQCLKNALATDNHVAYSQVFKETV
Nature of the assay: TLR7 inhibition reporter assay (HEK-Blue cells, SEAP reporter, gardiquimod stimulation). The conditions noted are these: HEK-Blue cells overexpressing human TLR7, SEAP reporter, gardiquimod 7.5 μM. In outline:
(§1)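 After 22 h at 37 °C, SEAP secretion was measured from human TLR7-, TLR8- or TLR9-expressing HEK-Blue reporter cells given compound (0.05 nM–50 μM) 30 min before agonist: 7.5 μM gardiquimod, 15.9 μM R848 or 5 nM ODN2006 respectively. Percent inhibition referenced to agonist-plus-DMSO and known-inhibitor wells.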
On the technique in general: A reporter such as luciferase makes a cellular process visible.

Another assay deals with T2, human TLR8 (Homo sapiens, UniProt Q9NR97).
T2 construct: host or cells: HEK-Blue cells (HEK293-derived reporter line)
T2 sequence (Q9NR97 27-1041): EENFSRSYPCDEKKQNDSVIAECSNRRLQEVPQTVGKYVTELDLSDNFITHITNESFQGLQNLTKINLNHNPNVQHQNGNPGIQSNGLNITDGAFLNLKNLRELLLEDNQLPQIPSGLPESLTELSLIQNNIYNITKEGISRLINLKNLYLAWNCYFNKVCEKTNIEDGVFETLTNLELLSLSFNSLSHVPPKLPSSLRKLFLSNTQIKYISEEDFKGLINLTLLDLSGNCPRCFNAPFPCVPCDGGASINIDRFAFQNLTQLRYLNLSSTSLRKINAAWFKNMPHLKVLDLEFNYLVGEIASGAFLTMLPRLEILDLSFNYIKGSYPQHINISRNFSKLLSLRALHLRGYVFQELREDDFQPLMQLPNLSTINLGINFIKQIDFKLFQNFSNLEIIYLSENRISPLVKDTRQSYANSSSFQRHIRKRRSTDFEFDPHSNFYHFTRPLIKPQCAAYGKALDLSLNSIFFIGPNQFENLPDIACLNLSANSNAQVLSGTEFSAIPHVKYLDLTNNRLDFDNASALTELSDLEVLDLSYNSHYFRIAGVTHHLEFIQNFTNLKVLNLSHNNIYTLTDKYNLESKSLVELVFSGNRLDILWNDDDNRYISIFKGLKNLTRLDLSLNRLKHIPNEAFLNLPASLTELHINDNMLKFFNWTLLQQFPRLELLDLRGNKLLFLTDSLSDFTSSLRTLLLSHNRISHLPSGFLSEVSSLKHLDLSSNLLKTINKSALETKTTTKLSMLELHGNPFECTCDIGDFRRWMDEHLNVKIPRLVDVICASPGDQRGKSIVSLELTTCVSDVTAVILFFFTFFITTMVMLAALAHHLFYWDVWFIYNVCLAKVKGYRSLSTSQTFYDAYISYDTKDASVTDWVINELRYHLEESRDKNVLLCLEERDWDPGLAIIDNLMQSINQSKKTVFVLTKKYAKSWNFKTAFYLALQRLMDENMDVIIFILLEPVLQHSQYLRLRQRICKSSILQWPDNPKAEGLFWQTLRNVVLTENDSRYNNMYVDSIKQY
Nature of the assay: TLR8 inhibition reporter assay (HEK-Blue cells, SEAP reporter, R848 stimulation). The following applies: HEK-Blue cells overexpressing human TLR8, SEAP reporter, R848 15.9 μM. In outline:
as §1

The target in another assay is T3, human TLR9 (Homo sapiens, UniProt Q9NR96).
T3 construct: host or cells: HEK-Blue cells (HEK293-derived reporter line)
T3 sequence (Q9NR96 26-1032): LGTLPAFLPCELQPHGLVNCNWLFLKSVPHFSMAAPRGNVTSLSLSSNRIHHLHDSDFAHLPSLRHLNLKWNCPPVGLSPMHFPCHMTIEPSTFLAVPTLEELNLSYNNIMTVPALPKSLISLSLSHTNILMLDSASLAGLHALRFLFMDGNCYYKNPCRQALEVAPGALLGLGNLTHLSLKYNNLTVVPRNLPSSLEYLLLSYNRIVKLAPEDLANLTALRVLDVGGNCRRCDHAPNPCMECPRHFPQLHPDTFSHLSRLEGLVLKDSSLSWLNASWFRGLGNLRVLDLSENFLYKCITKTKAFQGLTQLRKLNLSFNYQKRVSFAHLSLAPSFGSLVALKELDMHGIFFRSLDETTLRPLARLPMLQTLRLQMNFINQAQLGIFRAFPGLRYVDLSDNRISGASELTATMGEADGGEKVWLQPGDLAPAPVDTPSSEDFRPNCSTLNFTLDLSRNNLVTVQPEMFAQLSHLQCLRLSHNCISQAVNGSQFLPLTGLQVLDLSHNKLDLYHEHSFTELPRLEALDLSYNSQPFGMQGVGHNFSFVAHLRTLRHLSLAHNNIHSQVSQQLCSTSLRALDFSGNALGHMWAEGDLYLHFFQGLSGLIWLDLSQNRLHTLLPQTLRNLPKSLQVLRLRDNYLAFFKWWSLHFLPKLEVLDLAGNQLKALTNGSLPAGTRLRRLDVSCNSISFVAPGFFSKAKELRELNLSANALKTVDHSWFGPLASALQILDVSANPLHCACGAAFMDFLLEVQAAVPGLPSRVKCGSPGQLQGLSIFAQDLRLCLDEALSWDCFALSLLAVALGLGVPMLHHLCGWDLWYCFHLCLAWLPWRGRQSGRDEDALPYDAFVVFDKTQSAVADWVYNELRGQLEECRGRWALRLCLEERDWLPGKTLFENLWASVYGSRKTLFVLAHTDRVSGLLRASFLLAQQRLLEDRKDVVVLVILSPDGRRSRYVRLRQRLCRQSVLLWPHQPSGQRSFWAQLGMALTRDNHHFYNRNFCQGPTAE
Nature of the assay: TLR9 inhibition reporter assay (HEK-Blue cells, SEAP reporter, ODN2006 stimulation). The conditions noted are these: HEK-Blue cells overexpressing human TLR9, SEAP reporter, ODN2006 5 nM. In outline:
as §1

Molecules are shown by their SMILES. pIC50: −log10 of the molar value. Some results are limits rather than exact numbers.

On to `CC(C)c1c(-c2ccc3nccn3c2)[nH]c2ccc(C3CCN(C(=O)C4CC(=O)N(C)C4)CC3)cc12` (stereo not drawn) [Example 645, 4-(4-(2-(imidazo[1,2-a]pyridin-6-yl)-3-isopropyl-1H-indol-5-yl)piperidine-1-carbonyl)-1-methylpyrrolidin-2-one], for which the pIC50 on human TLR7 was greater than 7.00; against human TLR8 it was 6.00 to 7.00; on human TLR9, less than 4.30.
For `COc1cc(-c2[nH]c3ccc(C4CCN(CC(N)=O)CC4)cc3c2C(C)C)nn2ncnc12` [Example 284, 2-(4-(3-isopropyl-2-(8-methoxy-[1,2,4]triazolo[1,5-b]pyridazin-6-yl)-1H-indol-5-yl)piperidin-1-yl)acetamide] the same measures were greater than 7.00, greater than 7.00 and 4.30 to 6.00.
With `Cc1cc2ncccc2cc1-c1[nH]c2ccc(C3CCNCC3)cc2c1C(C)C` [Example 140, 6-(3-isopropyl-5-(piperidin-4-yl)-1H-indol-2-yl)-7-methylquinoline], the pIC50 was greater than 7.00 against human TLR7, 6.00 to 7.00 against human TLR8 and 4.30 to 6.00 on human TLR9.
On to `C[C@@H](O)CC(=O)N1CCC(c2ccc3[nH]c(-c4cc(F)c5nccn5c4)c(CC(F)F)c3c2)CC1` [Example 603, (R)-1-(4-(3-(2,2-difluoroethyl)-2-(8-fluoroimidazo[1,2-a]pyridin-6-yl)-1H-indol-5-yl)piperidin-1-yl)-3-hydroxybutan-1-one], for which the negative-log IC50 (pIC50) against human TLR7 was 6.00 to 7.00; at human TLR8, less than 5.51; against human TLR9, less than 4.30.
As to `Cc1cc(-c2[nH]c3ccc(C4CCN(C(=O)C[C@@H](C)O)CC4)cc3c2C(C)C)cn2nnnc12` [Example 594, (R)-3-hydroxy-1-(4-(3-isopropyl-2-(8-methyltetrazolo[1,5-a]pyridin-6-yl)-1H-indol-5-yl)piperidin-1-yl)butan-1-one], the pIC50 against human TLR7 was greater than 7.00; on human TLR8, greater than 7.00; against human TLR9, 4.30 to 6.00.
On to `CC(C)c1c(-c2ccn3nnnc3c2)[nH]c2ccc(C3CCNCC3)cc12` [Example 82, 7-(3-isopropyl-5-(piperidin-4-yl)-1H-indol-2-yl)tetrazolo[1,5-a]pyridine], for which the pIC50 against human TLR7 is greater than 7.00; against human TLR8, 6.00 to 7.00; against human TLR9 it was 4.30 to 6.00.
Take `CC(C)c1c(-c2cc(C(C)(C)O)c3nccn3c2)[nH]c2ccc(C3CCNCC3)cc12` [Example 134, 2-(6-(3-isopropyl-5-(piperidin-4-yl)-1H-indol-2-yl)imidazo[1,2-a]pyridin-8-yl)propan-2-ol]: the pIC50 against human TLR7 is greater than 7.00; against human TLR8 it was 6.00 to 7.00; against human TLR9, 6.00 to 7.00.
Consider `CC(C)c1c(-c2ccnc3[nH]ncc23)[nH]c2ccc(C3CCN(Cc4cn(C)cn4)CC3)cc12` [Example 906, 4-(3-isopropyl-5-(1-((1-methyl-1H-imidazol-4-yl)methyl)piperidin-4-yl)-1H-indol-2-yl)-1H-pyrazolo[3,4-b]pyridine], for which the pIC50 was greater than 7.00 at human TLR7, greater than 7.00 against human TLR8 and 6.00 to 7.00 at human TLR9.
On to `CNC(=O)CN1CCC(c2ccc3[nH]c(-c4cc(OC)n5ncnc5c4)c(C(C)C)c3c2)CC1` [Example 332, 2-(4-(3-isopropyl-2-(5-methoxy-[1,2,4]triazolo[1,5-a]pyridin-7-yl)-1H-indol-5-yl)piperidin-1-yl)-N-methylacetamide], for which the pIC50 at human TLR7 was greater than 7.00; on human TLR8, greater than 7.00; against human TLR9 it was 6.00 to 7.00.
Regarding `CC(C)c1c(-c2ccc3[nH]c(=O)oc3c2)[nH]c2ccc(C3CCNCC3)cc12` [Example 10, 6-(3-isopropyl-5-(piperidin-4-yl)-1H-indol-2-yl)benzo[d]oxazol-2(3H)-one], the pIC50 against human TLR7 is greater than 7.00; against human TLR8 it was greater than 7.00; against human TLR9, 6.00 to 7.00.
Regarding `CC(C)c1c(-c2ccnc3[nH]ncc23)[nH]c2ccc(C3CCN(C(=O)Cn4ccnc4)CC3)cc12` [Example 565, 2-(1H-imidazol-1-yl)-1-(4-(3-isopropyl-2-(1H-pyrazolo[3,4-b]pyridin-4-yl)-1H-indol-5-yl)piperidin-1-yl)ethan-1-one], the pIC50 on human TLR7 was greater than 7.00; against human TLR8, greater than 7.00; at human TLR9, 4.30 to 6.00.
With `Cc1c(-c2[nH]c3ccc(C4CCN(CCS(C)(=O)=O)CC4)cc3c2C(C)C)cn2nnnc2c1C` [Example 786, 6-(3-isopropyl-5-(1-(2-(methylsulfonyl)ethyl)piperidin-4-yl)-1H-indol-2-yl)-7,8-dimethyltetrazolo[1,5-a]pyridine], the pIC50 on human TLR7 was greater than 7.00; against human TLR8, greater than 7.00; at human TLR9, 4.30 to 6.00.
Turning to `CCCN1CCC(c2ccc3[nH]c(-c4ccc5c(c4)COC5=O)c(C(C)C)c3c2)CC1` [Example 953, 5-(3-isopropyl-5-(1-propylpiperidin-4-yl)-1H-indol-2-yl)isobenzofuran-1(3H)-one], the figures for the pIC50 against human TLR7, against human TLR8 and at human TLR9 were greater than 7.00, greater than 7.00 and 4.30 to 6.00, respectively.

What is called pIC50 is −log10 of the IC50, conventionally taken in molar units.

The values are drawn from patent US11739098B2 (BRISTOL-MYERS SQUIBB COMPANY, priority 2017, dated 2023).
